According to patent US20220071971A1, “MACROCYCLIC COMPOUNDS AND THEIR USE IN THE TREATMENT OF DISEASE” (NOVARTIS AG, priority 2018, published 2022):
Like-named read-outs stand apart in the source and are kept apart here.

Experiments:
delF508-CFTR [1] = target: T1, delF508-CFTR (Homo sapiens, UniProt P13569, DEL508-508); test: Measurement of delF508-CFTR-HRP surface expression in CFBE41o- cells; format: cell-based; conditions: for Emax: CFBE41o-, efficacy relative to reference compound 3-(6-(1-(2,2-difluorobenzo[d][1,3]dioxol-5-yl)cyclopropane-1-carboxamido)-3-methylpyridin-2-yl)benzoic acid, read-out: DelF508-CFTR-HRP Amax %; for EC50: HRP-tagged delF508-CFTR surface expression, CFBE41o- cells, 24 h with compound, 10-point curve, highest concentration 10 μM
T1 construct: expressed in transfected cells
Summary of the method: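 CFBE41o- cells stably expressing delF508-CFTR with HRP in the fourth extracellular loop, induced 48 h with 500 ng/mL doxycycline, then exposed to compound (10-point, 3-fold, top 10 μM, ≤0.5% DMSO) for 24 h at 37° C. Surface HRP read by luminescence with cell-impermeant substrate; EC50 by logistic fit, triplicates, efficacy relative to reference corrector.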

delF508-CFTR [2] = target: T1, delF508-CFTR; test: Measurement of delF508-CFTR functional activity in primary human bronchial epithelial cells (HBECs) using MTECC-24 assay; format: cell-based; conditions: for EC50: primary human delF508-CFTR bronchial epithelial cells, 24 hr compound treatment, equivalent short circuit current, forskolin and potentiator, mean of at least two replicates, read-out: MTECC24 CFHBEC EC50; for MTECC24 CFHBEC Amax %: test compound (24 h) with potentiator (S)-3-amino-6-methoxy-N-(3,3,3-trifluoro-2-hydroxy-2-methylpropyl)-5-(trifluoromethyl)picolinamide, relative to 2 μM 3-(6-(1-(2,2-difluorobenzo[d][1,3]dioxol-5-yl)cyclopropane-1-carboxamido)-3-methylpyridin-2-yl)benzoic acid plus 0.5 μM N-(2,4-di-tert-butyl-5-hydroxyphenyl)-4-oxo-1,4-dihydroquinoline-3-carboxamide
Excerpt: Measurement of delF508-CFTR Functional Activity in Primary Human Bronchial Epithelial Cells (HBECs) Using Multi-Transepithelial Clamp Circuit (MTECC-24) Assay
This assay measures the functional activity of the CFTR channel (Chloride ion transport) in patient derived primary human bronchial epithilial cells with forskolin activation and in the presence of the CFTR corrector/potentiator combination.
Primary human delF508-CFTR bronchial epithelial cells were and cultured according to previously established methods (Neuberger, T. et, al., Methods in Molecular Biology, 2011, 741, pp 39-54). Briefly, before thawing the HBEC cells, T25 flasks were coated with 2 mL of 3T3 conditioned media (MTI-GlobalStem, Cat #GSM9100) for at least 12 hours in 37° C. CO2 incubator. 1.7×10^5 cells were seeded into one T25 flask with 5 mL of HBE growth media (BEBM with supplements (Lonza, Cat #CC-3170) with 10 nM of retinoic acid (Sigma, Cat #R-2625) and 1% of PSA (Hyclone, Cat #SV30079.01). Media was changed every day till the cells were 100% confluent. Cells were seeded into T75 flasks (pre-coated with 5 mL of 3T3 conditioned media for more than 12 hrs) at 4.95×10^5 cells/T75 flask in 15 mL of HBE growth media. Flasks were fed everyday with fresh HBE growth media until the cells were confluent. 24-well transwell plates (Corning, Cat #3378) were coated with 3T3 conditioned media (70 μL on top of the filter, 350 μL to the bottom of the well) overnight in the 37° C. CO2 incubator. Cells were seeded in the pre-coated 24-well transwell plates at 1.7×10^5 cell/well with 700 μL of growth media at the bottom of the well and 200 μL of growth media at the top of the filter. After 24 hrs, cells were switched into HBE differentiation media ((DMEM/F12 (Gibco, Cat #11330-032) supplement with 2% Ultroser G (Pall, Cat #15950-017), 2% of Fetal Clone II (Hyclone, Cat #SH30066.03), 0.25% Bovine Brain Extract (Lonza, Cat #CC-4098), 1% of PSA, 2.5 μg/mL of Insulin (Sigma, Cat #19278), 20 nM of Hydrocortisone (Sigma, Cat #H0888), 500 nM of Triiodothyronine (Sigma, Cat #T6397), 2.5 μg/mL of Transferrin (Sigma, Cat #T8158), 250 nM of Ethanolamine (Sigma, Cat #E0135), 1.5 μM of Epinephrine (Sigma, Cat #E4250), 250 nM of Phosphoethanolamine (Sigma, Cat #P0503), 10 nM of retinoic acid)) with 200 μL on top of the filter (apical side) and 700 μL at the bottom of the well (basolateral side). Cells were fed every other day with the differentiation media. After 4 days, cells were exposed to air/liquid interface. Then cells were fed every other day for 4 weeks before fully differentiated.
Cells were washed with 3 mM DTT in PBS at 70 ul/well for 30 min at 37° C. 6 days before the assay. 3 days before the assay, cells were washed again with PBS at 70 ul/well for 30 min at 37° C. Then cells were treated with compound for 24 hrs before the assay.
Following 24 hr treatment with compound, cells were transferred into plates containing 750 ul of assay media on basolateral side and 250 ul on apical side (Assay medium: F-12 Coon's modified, 20 mM HEPES pH7.4 with TRIS Base, No FCS or bicarbonate). The plates wee then transferred to the heated plate compartments (basolateral buffer temperature ˜36.5° C. on the heating block) of the TECC24 system for 45 mins prior to measurements.
Modulators were added sequentially as follows while the TECC24 instrument recorded the equivalent short circuit current (Ieq):
Prior to dilution into assay medium the stocks were as follows: Benzamil stock: 10 mM in DMSO
Forskolin Stock: 50 mM in DMSO
N-(2,4-di-tert-butyl-5-hydroxyphenyl)-1,4-dihydro-4-oxoquinoline-3-carboxamide: 50 mM in DMSO (S)-3-amino-6-methoxy-N-(3,3,3-trifluoro-2-hydroxy-2-methylpropyl)-5-(trifluoromethyl)picolinamide: 50 mM stock 100% DMSO Bumetanide stock: 20 mM in EtOH
The data was normalized using the median signal from wells treated with 0.1% DMSO as a baseline. Curve fitting and EC50 calculations were performed using the following equation: […]

T1 sequence (P13569 with tags, fused parts or gaps DEL508-508): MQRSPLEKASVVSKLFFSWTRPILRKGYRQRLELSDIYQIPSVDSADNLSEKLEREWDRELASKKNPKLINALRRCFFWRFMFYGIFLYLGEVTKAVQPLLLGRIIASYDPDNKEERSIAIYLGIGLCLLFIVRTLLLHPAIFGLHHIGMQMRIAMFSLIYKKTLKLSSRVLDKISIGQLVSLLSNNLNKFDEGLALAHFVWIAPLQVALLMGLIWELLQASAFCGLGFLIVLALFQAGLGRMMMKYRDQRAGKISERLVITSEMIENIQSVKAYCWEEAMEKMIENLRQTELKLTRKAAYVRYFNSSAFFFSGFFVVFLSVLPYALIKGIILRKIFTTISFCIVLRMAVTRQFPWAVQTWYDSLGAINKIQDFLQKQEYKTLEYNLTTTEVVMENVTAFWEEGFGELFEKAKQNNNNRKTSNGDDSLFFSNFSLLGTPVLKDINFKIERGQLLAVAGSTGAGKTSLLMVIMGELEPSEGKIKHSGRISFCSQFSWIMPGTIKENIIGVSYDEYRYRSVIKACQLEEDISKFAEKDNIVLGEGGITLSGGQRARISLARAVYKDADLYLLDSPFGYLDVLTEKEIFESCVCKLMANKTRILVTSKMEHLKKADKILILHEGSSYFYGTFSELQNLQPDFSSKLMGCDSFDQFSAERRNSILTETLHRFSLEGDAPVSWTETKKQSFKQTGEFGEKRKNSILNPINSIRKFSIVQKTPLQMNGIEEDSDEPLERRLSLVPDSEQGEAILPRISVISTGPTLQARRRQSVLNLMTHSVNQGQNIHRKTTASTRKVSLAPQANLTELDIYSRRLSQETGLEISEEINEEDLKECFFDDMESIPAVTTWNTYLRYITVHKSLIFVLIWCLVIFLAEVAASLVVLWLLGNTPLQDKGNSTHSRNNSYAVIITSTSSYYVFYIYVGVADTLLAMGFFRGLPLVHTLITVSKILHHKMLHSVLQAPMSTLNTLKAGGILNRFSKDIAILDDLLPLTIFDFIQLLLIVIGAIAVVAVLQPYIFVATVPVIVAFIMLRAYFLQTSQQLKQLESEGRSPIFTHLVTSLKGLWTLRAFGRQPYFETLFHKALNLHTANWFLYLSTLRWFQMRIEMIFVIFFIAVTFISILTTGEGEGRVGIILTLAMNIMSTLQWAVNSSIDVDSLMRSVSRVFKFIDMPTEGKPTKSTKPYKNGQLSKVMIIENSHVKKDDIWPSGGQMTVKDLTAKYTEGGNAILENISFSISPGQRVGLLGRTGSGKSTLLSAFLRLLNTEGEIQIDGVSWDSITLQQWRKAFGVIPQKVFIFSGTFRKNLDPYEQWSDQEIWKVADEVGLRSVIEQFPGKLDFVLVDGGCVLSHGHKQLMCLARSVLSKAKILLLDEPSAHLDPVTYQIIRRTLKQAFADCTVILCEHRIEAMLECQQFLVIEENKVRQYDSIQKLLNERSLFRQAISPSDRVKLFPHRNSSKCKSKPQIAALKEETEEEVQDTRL

| Compound | EC50 (delF508-CFTR [1]) | EC50 (delF508-CFTR [2]) | MTECC24 CFHBEC Amax % (delF508-CFTR [2]) | other results |
| --- | --- | --- | --- | --- |
| O=S1(=O)Nc2ccc(C(F)(F)F)c(n2)-c2ccccc2C=CCCN(CCO)c2cccc1n2 |  |  |  | ring closure, isolated yield (from C=CCCN(CCO)c1cccc(S(=O)(=O)Nc2ccc(C(F)(F)F)c(-c3ccccc3C=C)n2)n1, rcm bond, 15-membered ring, Grubbs II (two portions), DCM, 2.1 mM, 45.0 °C): 91% |
| O=S1(=O)Nc2ccc(C(F)(F)F)c(n2)-c2ccccc2C=CCCCCN(CCCCCO)c2cccc1n2 |  |  |  | ring closure, isolated yield (from C=CCCCCN(CCCCCO)c1cccc(S(=O)(=O)Nc2ccc(C(F)(F)F)c(-c3ccccc3C=C)n2)n1, rcm bond, 17-membered ring, Grubbs II (20 mol%), DCM (or DCE), 1.85 mM, 55.0 °C): 94% |
| tert-butyl 4-(4,4-dioxido-2^3-(trifluoromethyl)-10-oxa-4-thia-3,6-diaza-2,5(2,6)-dipyridina-1(1,2)-benzenacycloundecaphane-6-yl)butanoate |  |  |  | ring closure, isolated yield (snar bond, 16-membered ring, DIEA, NMP, 40.0 mM, 135.0 °C): 75% |
| O=S1(=O)Nc2ccc(C(F)(F)F)c(n2)-c2ccccc2C=CCCC(CCCO)Oc2cccc1n2 (stereo not drawn) |  |  |  | ring closure, isolated yield (from C=CCCC(CCCO)Oc1cccc(S(=O)(=O)Nc2ccc(C(F)(F)F)c(-c3ccccc3C=C)n2)n1, rcm bond, 16-membered ring, Grubbs II (10 mol%), DCM, 3.68 mM, 45.0 °C): 95% |
| CC(C)(CN1CCCCCc2ccccc2-c2nc(ccc2C(F)(F)F)NS(=O)(=O)c2cccc1n2)C(=O)O [Compound 100, 3-(4,4-dioxido-2^3-(trifluoromethyl)-4-thia-3,6-diaza-2,5(2,6)-dipyridina-1(1,2)-benzenacycloundecaphane-6-yl)-2,2-dimethylpropanoic acid] | 351 nM | 4.3 nM | 175.8% |  |

The next lines start with results.

| EC50 (delF508-CFTR [1]) | EC50 (delF508-CFTR [2]) | MTECC24 CFHBEC Amax % (delF508-CFTR [2]) | Compound | other results |
| --- | --- | --- | --- | --- |
| 919 nM | 4.6 nM | 123.2% | O=C(O)CCCN1CCCCc2ccccc2-c2nc(ccc2C(F)(F)F)NS(=O)(=O)c2cccc1n2 [Compound 90, 4-(4,4-dioxido-2^3-(trifluoromethyl)-4-thia-3,6-diaza-2,5(2,6)-dipyridina-1(1,2)-benzenacyclodecaphane-6-yl)butanoic acid] | Emax (delF508-CFTR [1]): 674% |
| 694 nM | 6.9 nM | 90.0% | O=C(O)CCN1CCCCCc2ccccc2-c2nc(ccc2C(F)(F)F)NS(=O)(=O)c2cccc1n2 [Compound 92, 3-(4,4-dioxido-2^3-(trifluoromethyl)-4-thia-3,6-diaza-2,5(2,6)-dipyridina-1(1,2)-benzenacycloundecaphane-6-yl)propanoic acid] | Emax (delF508-CFTR [1]): 982% |
| 66 nM | 0.9 nM | 171.1% | CC(C)(CO)CN1CCCCCCc2ccccc2-c2nc(ccc2C(F)(F)F)NS(=O)(=O)c2cccc1n2 [Compound 28, 6-(3-hydroxy-2,2-dimethylpropyl)-2^3-(trifluoromethyl)-4-thia-3,6-diaza-2,5(2,6)-dipyridina-1(1,2)-benzenacyclododecaphane 4,4-dioxide] |  |
